# Measured values published in paper PMC5574184 (Journal of medicinal chemistry, 2016).
# Entries after “also recorded” stand apart in the source; their conditions may differ.
# Key:
# [1] = molecular target: HDAC1 (Homo sapiens, UniProt Q13547); assay: ELISA-based HDAC activity assay; format: biochemical
# [2] = molecular target: HDAC2 (Homo sapiens, UniProt Q92769); assay: ELISA-based HDAC activity assay; format: biochemical
# [3] = molecular target: HDAC3 (Homo sapiens, UniProt O15379); assay: ELISA-based HDAC activity assay; format: biochemical
# [4] = test system: 60 NCI cell lines; assay: NCI-60 dose response assay; format: cell-based, human; conditions: for GI50 in the dose response assay (in words): most of the NCI-60 cell lines
# [5] = test system: global histone H3 lysine 9 (H3K9) acetylation in HCT116; assay: Western blot analysis of global histone H3 lysine 9 acetylation; format: cell-based, human; conditions: for concentration at which significant induction of global acetylation was observed: HCT116, 24 h exposure, tested at 10 nM, 100 nM, 1 μM
# [6] = molecular target: T1, HDAC6 (Homo sapiens, UniProt Q9UBN7); assay: ELISA-based HDAC activity assay; format: biochemical
# T1 sequence (Q9UBN7 1-1215): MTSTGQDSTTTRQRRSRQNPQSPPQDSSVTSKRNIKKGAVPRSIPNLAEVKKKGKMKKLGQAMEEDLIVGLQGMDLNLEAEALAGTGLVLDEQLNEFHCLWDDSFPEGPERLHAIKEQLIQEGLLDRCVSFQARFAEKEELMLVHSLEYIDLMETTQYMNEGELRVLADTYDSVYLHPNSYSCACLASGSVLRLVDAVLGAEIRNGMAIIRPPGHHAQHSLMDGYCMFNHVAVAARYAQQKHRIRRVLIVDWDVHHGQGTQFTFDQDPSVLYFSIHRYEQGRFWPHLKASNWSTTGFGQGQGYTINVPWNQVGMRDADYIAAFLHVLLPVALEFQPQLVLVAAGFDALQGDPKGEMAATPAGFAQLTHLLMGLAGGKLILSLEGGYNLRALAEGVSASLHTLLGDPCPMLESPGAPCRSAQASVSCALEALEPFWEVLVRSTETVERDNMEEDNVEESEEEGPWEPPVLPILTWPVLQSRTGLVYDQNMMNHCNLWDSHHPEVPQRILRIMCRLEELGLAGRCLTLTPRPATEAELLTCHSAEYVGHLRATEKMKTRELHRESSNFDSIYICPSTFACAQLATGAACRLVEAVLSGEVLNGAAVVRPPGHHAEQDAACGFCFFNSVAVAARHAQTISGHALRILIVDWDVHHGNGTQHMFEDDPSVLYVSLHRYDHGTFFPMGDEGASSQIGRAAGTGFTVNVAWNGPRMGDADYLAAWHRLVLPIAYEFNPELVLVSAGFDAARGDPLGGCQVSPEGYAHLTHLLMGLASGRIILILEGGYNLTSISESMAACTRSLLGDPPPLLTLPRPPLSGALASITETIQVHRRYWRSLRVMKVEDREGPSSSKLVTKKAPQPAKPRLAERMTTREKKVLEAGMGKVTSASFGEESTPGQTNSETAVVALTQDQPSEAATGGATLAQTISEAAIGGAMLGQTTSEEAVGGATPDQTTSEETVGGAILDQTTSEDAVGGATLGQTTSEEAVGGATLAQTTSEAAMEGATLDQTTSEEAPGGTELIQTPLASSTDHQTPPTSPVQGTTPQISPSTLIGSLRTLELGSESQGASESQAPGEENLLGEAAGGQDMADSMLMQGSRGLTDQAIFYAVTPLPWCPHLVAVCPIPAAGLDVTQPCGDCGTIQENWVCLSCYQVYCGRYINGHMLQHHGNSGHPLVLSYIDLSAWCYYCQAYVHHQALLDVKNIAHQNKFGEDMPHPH
# [7] = NCI nontumored animal toxicity assay for acute toxicity; format: in vivo; conditions: highest dose of 50 mg/kg tested
# [8] = test system: HCT116 colorectal cancer cell line; conditions: read-out: GI50 previously reported; HCT 116 cell growth inhibition; cited from earlier work
# [9] = mouse serum, mouse microsomal proteins, cellular proteins; cited from earlier work
# HDAC1, sequence (Q13547 whole entry): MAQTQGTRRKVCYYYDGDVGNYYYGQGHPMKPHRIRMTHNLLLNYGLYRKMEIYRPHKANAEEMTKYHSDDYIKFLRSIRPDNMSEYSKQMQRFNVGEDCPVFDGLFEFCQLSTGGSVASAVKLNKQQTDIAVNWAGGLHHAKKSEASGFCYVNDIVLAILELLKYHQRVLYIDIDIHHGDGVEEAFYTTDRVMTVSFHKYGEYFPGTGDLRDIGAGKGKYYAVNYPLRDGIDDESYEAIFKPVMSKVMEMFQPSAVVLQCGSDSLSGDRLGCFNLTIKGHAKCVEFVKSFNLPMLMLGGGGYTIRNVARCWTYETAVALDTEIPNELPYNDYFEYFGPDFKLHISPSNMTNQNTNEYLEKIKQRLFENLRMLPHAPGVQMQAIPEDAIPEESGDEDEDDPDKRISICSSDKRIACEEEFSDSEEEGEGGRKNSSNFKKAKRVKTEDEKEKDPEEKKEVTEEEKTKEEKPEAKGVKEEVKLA
# HDAC2, sequence (Q92769 whole entry): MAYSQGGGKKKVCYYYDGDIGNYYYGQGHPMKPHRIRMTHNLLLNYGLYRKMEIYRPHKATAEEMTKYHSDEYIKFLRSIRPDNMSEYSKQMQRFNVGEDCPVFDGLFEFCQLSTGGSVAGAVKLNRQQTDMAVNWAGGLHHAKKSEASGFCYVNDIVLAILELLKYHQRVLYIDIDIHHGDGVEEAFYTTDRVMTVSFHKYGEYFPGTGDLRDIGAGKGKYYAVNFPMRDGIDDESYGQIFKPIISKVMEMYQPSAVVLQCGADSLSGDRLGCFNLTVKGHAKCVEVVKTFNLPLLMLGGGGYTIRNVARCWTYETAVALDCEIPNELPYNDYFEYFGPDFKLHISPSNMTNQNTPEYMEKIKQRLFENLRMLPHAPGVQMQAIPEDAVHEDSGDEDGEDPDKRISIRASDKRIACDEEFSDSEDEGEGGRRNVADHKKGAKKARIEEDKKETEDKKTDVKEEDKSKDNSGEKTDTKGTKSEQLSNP
# HDAC3, sequence (O15379 whole entry): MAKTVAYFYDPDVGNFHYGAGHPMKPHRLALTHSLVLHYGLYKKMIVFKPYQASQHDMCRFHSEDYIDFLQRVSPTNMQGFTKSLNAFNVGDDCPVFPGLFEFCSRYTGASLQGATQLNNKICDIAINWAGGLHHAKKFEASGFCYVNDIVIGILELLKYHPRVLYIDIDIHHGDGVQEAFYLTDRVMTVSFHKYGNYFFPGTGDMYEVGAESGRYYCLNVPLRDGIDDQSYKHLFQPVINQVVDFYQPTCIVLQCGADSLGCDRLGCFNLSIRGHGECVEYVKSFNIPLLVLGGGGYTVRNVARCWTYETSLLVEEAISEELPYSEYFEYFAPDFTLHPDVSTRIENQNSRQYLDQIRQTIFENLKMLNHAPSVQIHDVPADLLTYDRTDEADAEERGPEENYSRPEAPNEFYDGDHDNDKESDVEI
# HDAC3, sequence (Q9Y618 whole entry partner): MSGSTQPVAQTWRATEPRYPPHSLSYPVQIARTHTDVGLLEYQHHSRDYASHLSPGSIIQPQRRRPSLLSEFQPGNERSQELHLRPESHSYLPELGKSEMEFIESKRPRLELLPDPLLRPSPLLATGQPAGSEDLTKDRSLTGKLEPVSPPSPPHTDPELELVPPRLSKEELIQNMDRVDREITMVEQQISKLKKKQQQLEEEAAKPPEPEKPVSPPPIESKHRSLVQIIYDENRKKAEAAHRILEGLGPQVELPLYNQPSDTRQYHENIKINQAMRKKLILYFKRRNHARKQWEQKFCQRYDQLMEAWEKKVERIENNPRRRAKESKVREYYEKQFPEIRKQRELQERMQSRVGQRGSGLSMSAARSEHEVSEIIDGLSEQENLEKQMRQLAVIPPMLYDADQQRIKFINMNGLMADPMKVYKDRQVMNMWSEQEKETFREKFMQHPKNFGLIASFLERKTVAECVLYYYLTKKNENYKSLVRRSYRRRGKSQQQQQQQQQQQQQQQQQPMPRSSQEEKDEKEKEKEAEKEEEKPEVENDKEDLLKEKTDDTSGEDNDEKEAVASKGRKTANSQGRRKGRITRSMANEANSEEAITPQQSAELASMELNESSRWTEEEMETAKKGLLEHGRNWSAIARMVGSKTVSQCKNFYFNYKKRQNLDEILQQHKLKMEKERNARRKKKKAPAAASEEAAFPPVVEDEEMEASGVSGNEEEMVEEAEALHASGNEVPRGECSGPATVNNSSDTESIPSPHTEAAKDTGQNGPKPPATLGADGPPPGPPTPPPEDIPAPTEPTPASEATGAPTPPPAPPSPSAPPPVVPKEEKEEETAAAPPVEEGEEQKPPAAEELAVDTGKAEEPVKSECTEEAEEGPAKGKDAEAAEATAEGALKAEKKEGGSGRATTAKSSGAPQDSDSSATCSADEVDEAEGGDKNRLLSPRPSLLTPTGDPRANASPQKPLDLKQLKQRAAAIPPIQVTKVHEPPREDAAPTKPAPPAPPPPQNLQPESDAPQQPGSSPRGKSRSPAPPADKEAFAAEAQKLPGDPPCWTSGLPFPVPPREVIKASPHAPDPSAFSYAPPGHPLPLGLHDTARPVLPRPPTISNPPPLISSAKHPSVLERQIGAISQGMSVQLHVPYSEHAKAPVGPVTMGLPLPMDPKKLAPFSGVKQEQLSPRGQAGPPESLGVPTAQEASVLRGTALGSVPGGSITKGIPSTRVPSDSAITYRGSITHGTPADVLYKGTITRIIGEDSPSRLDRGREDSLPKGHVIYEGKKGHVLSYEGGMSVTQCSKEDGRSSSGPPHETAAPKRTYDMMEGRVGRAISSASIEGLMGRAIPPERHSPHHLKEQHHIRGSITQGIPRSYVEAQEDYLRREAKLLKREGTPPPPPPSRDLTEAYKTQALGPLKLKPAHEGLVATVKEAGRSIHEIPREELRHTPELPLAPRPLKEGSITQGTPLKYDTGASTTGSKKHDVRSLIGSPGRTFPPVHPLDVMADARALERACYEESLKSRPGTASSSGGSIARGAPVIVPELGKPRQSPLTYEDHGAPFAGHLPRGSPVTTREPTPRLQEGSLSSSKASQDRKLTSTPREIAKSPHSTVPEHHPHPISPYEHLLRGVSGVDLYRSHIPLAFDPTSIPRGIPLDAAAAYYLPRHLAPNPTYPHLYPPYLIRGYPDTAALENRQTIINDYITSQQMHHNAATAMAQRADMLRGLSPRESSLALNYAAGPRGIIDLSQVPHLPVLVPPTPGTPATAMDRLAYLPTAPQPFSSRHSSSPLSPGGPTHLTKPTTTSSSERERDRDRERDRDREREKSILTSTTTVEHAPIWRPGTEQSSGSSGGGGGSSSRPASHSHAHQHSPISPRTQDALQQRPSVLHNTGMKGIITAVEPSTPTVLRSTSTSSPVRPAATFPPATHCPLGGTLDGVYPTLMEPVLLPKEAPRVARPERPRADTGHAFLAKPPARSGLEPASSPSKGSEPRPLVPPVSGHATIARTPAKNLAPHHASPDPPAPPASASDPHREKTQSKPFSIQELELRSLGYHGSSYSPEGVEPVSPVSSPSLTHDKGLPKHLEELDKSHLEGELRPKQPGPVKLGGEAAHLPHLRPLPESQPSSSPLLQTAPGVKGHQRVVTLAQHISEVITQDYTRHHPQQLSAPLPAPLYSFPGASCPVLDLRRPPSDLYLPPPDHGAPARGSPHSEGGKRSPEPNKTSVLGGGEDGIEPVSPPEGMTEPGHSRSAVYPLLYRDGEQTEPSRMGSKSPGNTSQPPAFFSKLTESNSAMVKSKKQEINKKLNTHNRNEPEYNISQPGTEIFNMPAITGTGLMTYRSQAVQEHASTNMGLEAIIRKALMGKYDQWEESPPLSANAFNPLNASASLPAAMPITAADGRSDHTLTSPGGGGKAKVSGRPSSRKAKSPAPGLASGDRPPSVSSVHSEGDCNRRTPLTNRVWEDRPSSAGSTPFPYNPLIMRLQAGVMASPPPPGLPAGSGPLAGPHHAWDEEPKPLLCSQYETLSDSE
smiles,measurement,setting,value
CCCCCCCC(=O)SCC/C=C/[C@@H]1CC(=O)NCCOCCOCC(=O)N[C@@H](C(C)C)C(=O)O1 [Analogue 6],"inhibition of HDAC1, single concentration screen",[1]; 2 μM,significantly
same,"inhibition of HDAC2, single concentration screen",[2]; 2 μM,significantly
same,"inhibition of HDAC3, single concentration screen",[3]; 2 μM,significantly
CCCCCCCC(=O)SCC/C=C/[C@@H]1CC(=O)NCc2cccc(n2)-c2cccc(n2)C(=O)N[C@@H](C(C)C)C(=O)O1 [Analogue 7],concentration inhibiting the growth of most of the cancer cell lines,[4]; NCI-60 dose response,< 10 nM
same,GI50 in the dose response assay (in words),[4],low nanomolar
same,concentration at which significant induction of global acetylation was observed,[5],10 nM
same,"inhibition of HDAC1, single concentration screen",[1]; 250 nM,significantly
same,"inhibition of HDAC2, single concentration screen",[2]; 250 nM,significantly
same,"inhibition of HDAC3, single concentration screen",[3]; 250 nM,significantly
same,"selectivity for class I HDAC proteins (HDAC1, HDAC2, HDAC3) over class II HDAC6",[6]; from IC50 values,at least 464 fold
same,acute toxicity,[7],no signs of toxicity; also recorded: well tolerated
CCCCCCCC(=O)SCC/C=C/[C@@H]1CC(=O)NCc2cccc(n2)CN(C)CC(=O)N[C@@H](C(C)C)C(=O)O1 [Analogue 8],GI50 in the dose response assay (in words),[4],micromolar GI50s
same,"inhibition of HDAC6, single concentration screen",[6]; 1 μM,slightly greater inhibition of HDAC6 compared to 6 and 7
CCCCCCCC(=O)SCC/C=C/[C@@H]1CC(=O)NCc2cccc(n2)CN(Cc2cccc3ccccc23)CC(=O)N[C@@H](C(C)C)C(=O)O1 [Analogue 13],global acetylation observed,"[5]; HCT116, even at 100 nM",hardly any global acetylation
CCCCCCCC(=O)SCC/C=C/[C@@H]1CC(=O)NCc2nc(cs2)C2=N[C@@](C)(CS2)C(=O)N[C@@H](C(C)C)C(=O)O1 [Largazole],concentration at which significant induction of global acetylation was observed,[5],10 nM
same,GI50,[8],44 nM
same,metabolic conversion,[9],rapidly converted to the active metabolite largazole thiol
